From article PMC9569184, “Antigenic molecular mimicry in viral-mediated protection from cancer: the HIV case” (Journal of Translational Medicine, 2022) come the findings set out here.

Experiment [1] addresses T1, HLA-A*02:01 molecule (Homo sapiens, UniProt P04439, D140Y/D185E/D98H/E176V/E277Q/G131W/G231S/I119V/I121R/I166T/I218V/L300P/L318F/N151K/N90K/P208A/P217A/Q86G/Q94H/R138H/R169H/T345S).
T1 construct: host or cells: T2 (174xCEM.T2) human TAP-deficient cells
The experiment in a line: Peptide binding affinity assay in TAP-deficient T2 cells. Format: cell-based. The following applies: peptide 5, 10, 20, 50 and 100 μM, 16 h at 27°C + 2 h at 37 °C, anti HLA-A2 R-PE, flow cytometry, triplicate. The procedure: Peptide binding affinity to HLA-A*02:01 molecule and BFA decay assays were performed for each candidate peptide. Human TAP-deficient T2 cell line (174xCEM.T2; ATCC CRL 1992™) was purchased from American Type Culture Collection (ATCC; https://www.atcc.org/) and cultured in Iscove's modified Dulbecco's medium (IMDM; Gibco Life Technologies) containing 25 mM HEPES and 2 mM L-Glut, supplemented with 20% fetal bovine serum (FBS; Capricorn Scientific GmbH), 100 IU/ml penicillin and 100 μg/ml streptomycin (Gibco Life Technologies). Cells were maintained at 37 °C in a humidified incubator with 5% CO2. Briefly, T2 were seeded at 3.5 × 10^5 cells per well in 24 well plates and incubated 16 h at 27°C with peptides (final concentrations: 5, 10, 20, 50 and 100 μM) in IMDM serum free medium. The next day, cells have been incubated for additional 2 h at 37 °C. Following incubation, cells were harvested and centrifuged at 200 × g for 5 min. Subsequently, cells were washed twice with phosphate buffered saline (1X PBS; Gibco Life Technologies) and stained with R-PE conjugated anti human HLA-A2 mono-clonal antibody (cat. 343,306; BioLegend), for 30 min at 4 °C, and analyzed with the Attune™ NxT flow cytometer (Thermo Fisher Scientific). […] A fluorescence index (FI) was calculated using the following formula: FI = [mean fluorescence intensity (MFI) sample – MFI background]/MFI background, where MFI background represents the value without peptide. […] Cells were harvested every two hours (T0, T2, T4, T6, T8), washed with phosphate buffered saline (1X PBS; Gibco Life Technologies), stained with anti HLA-A*0201 fluorescent monoclonal antibody (cat. 343,306; BioLegend) and analyzed by flow cytometry. The stability of each peptide bound to HLA-A*02:01 was measured as the DC50 value, which was defined as an estimate of the time required for a 50% reduction of the MFI value at time 0. The DC50 value was calculated according to the formula: MFI at indicated time points/MFI at time 0 × 100. […]
Background: A flow cytometer gives signals particle by particle.

Experiment [2] deals with T1, HLA-A*02:01 molecule. Put plainly: BFA decay assay (peptide-MHC dissociation) in T2 cells. It counts as cell-based. The following applies: peptide 50 μM, 1X BFA 1 h at 37°C, harvested every two hours T0-T8, flow cytometry, triplicate. Here is the method:
Cells were maintained at 37 °C in a humidified incubator with 5% CO2.

For the sequence VIAGIVALV, the “binding to HLA-A*02:01 (HLA surface expression on T2 cells)” value (“binding” for short) at HLA-A*02:01 molecule [1] is given as “dose-dependent increase in the HLA surface expression on T2 cells over the background”.

In the case of “VVAGIVVLV [TAA derived from the colon ca-associated EPCAM protein]”, the “binding” value at HLA-A*02:01 molecule [1] is listed as “dose-dependent increase in the HLA surface expression on T2 cells over the background”. Moreover, at HLA-A*02:01 molecule [2], the “50% dissociation value (Thalf), peptide-MHC dissociation kinetics” value came to 4 h.

Regarding VVAGIIALV, the “binding” value on HLA-A*02:01 molecule [1] is “dose-dependent increase in the HLA surface expression on T2 cells over the background”.
